Laboratory results taken from patent US10214766B2, “Luminescent substrate for use in artificial bioluminescent enzyme” (NATIONAL INSTITUTE OF ADVANCED INDUSTRIAL SCIENCE AND …, priority 2013, dated 2019).
Entries after “also recorded” stand apart in the source; their conditions may differ.

Assays:
Type in all cases: biochemical
[1] = biological target: T1, RLuc8.6-535 (Renilla reniformis, UniProt P27652, A123S/A143M/A55T/C124A/D162E/I163L/K136R/M185L/M253L/S130A/S287L); conditions: COS-7 lysate 10 μL, LAS-4000
T1 construct: expressed in transfected cells; host or cells: COS-7 (African monkey kidney), lysate
Procedure: (§1) First, African monkey kidney-derived culture cells COS-7 were cultured in a 96-well plate until the culture area covered 90% of the lower area of the plate. At this stage, the plate wells growing cells were divided into two groups, and pcDNA3.1(+) vector, which expresses ALuc34 or RLuc8.6-535, was introduced into each group by the lipofection technique (TransIT-LT1), followed by further incubation for 16 hours. After incubation, the cells were lysed and an aliquot of the lysates (10 μL) is placed in a fresh 96-well plate. Different luminescent substrates were simultaneously added thereto using a multichannel pipette, and the relative luminescence intensity was immediately measured with a luminescence imaging analyzer LAS-4000 (FujiFilm). […] As used herein, “substrate selectivity” refers to a luminescence intensity of ALuc compared with the luminescence intensity of RLuc8.6-535 in the presence of the same luminescent substrate.

[2] = test system: ALuc34; experiment: Relative luminescence intensity of lysates of COS-7 cells expressing ALuc34 after adding coelenterazine derivatives; conditions: for Ratios (A34/RLuc8.6-535): ALuc34 intensity over RLuc8.6-535 intensity, same substrate; for Luminescence intensity ALuc34 ave: COS-7 lysate 10 μL, LAS-4000; for substrate selectivity (RLuc8.6-535:ALuc, 1:x): luminescence intensity of ALuc compared with RLuc8.6-535, same substrate
Procedure: as §1

[3] = biological target: T1, RLuc8.6-535; conditions: 5 μL lysate + 30 μL substrate, AB-1850
[4] = test system: ALuc; experiment: Dual assay with or without 0.1% SDS, ALuc luminescence; conditions: sulfate
Procedure: (§2) It is advantageous for simultaneous measurement of multiple biomarkers if a dual assay can be performed in the presence of two or more bioluminescent enzymes. With this point in mind, luminescence was measured in the presence of two bioluminescent enzymes (ALuc and CLuc) (FIG. 5). First, COS-7 cells were cultured in a 96-well plate, and a plasmid that expresses ALuc or CLuc was transfected into each cellular compartment by lipofection. Under the conditions, CLuc is secreted, but ALuc largely remains inside the cells because of the endoplasmic reticulum localization signal (KDEL) attached to the terminus. 16 hours later, 10 μL of the CLuc culture solution was mixed with 2 μL of ALuc lysate. Then, the luminescence intensity was compared between the cases where 0.1% SDS was added or not, After addition of the luminescent substrates specific to ALuc and CLuc, respectively.

[5] = test system: Cypridina luciferase (CLuc); experiment: Dual assay with or without 0.1% SDS, CLuc luminescence
Procedure: as §2

T1 sequence (P27652 whole entry A55T/A123S/C124A/S130A/K136R/A143M/D162E/I163L/M185L/M253L/S287L): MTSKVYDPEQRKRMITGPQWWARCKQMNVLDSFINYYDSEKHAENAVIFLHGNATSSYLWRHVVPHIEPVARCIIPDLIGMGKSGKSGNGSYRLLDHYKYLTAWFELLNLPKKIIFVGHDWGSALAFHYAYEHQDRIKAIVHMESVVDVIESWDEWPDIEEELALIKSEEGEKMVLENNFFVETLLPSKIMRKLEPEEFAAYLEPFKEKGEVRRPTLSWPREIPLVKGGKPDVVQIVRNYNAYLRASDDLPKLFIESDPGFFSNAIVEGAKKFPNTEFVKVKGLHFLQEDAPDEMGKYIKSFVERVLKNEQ

Compound	Luminescence intensity RLuc8.6-535 ave [1]	Ratios (A34/RLuc8.6-535) [2]	Luminescence intensity ALuc34 ave [2]	luminescence intensity with ALuc (in words) [2]	Spectrum peak RLuc8.6-535 [3]	substrate selectivity (RLuc8.6-535:ALuc, 1:x) [2]	luminescent substrate selectivity ([2]; ALuc versus RLuc8.6-535)	effect on ALuc luminescence activity [4]	effect on CLuc luminescence activity [5]
O=c1c(Cc2ccc3ccccc3c2)nc2c(Cc3ccccc3)[nH]c(-c3ccc(O)cc3)cn1-2	2132 RLU/μg/sec/mm2	81	172323 RLU/μg/sec/mm2						
O=c1c(Cc2ccccc2)nc2c(Cc3ccccc3)[nH]c(-c3ccccc3)cn1-2 [CTZ 400, coelenterazine 400A]	3 RLU/μg/sec/mm2	3610	11624 RLU/μg/sec/mm2	luminescence intensity was almost not observed at all					
O=c1c(Cc2ccc(F)cc2)nc2c(Cc3ccccc3)[nH]c(-c3ccc(O)cc3)cn1-2 [CTZ f, coelenterazine f]	7151 RLU/μg/sec/mm2	134	956530 RLU/μg/sec/mm2		547 nm	134			
Oc1ccc(-c2cn3c(O)c(Cc4ccc(F)cc4)nc3c(CC3CCCC3)n2)cc1 [CTZ fcp, coelenterazine fcp, reference compound]	1217 RLU/μg/sec/mm2	3	3712 RLU/μg/sec/mm2						
O=c1c(Cc2ccccc2)nc2c(Cc3ccccc3)[nH]c(-c3ccc(O)cc3)cn1-2 [CTZ h, coelenterazine h]	12812 RLU/μg/sec/mm2	91	1168658 RLU/μg/sec/mm2	strong luminescence	545 nm				
Oc1ccc(-c2cn3c(O)c(Cc4ccccc4)nc3c(CC3CCCC3)n2)cc1 [CTZ hcp, coelenterazine hcp, reference compound]	2058 RLU/μg/sec/mm2	3	5191 RLU/μg/sec/mm2						
O=c1c(Cc2ccc(I)cc2)nc2c(Cc3ccccc3)[nH]c(-c3ccc(O)cc3)cn1-2 [CTZ i, coelenterazine i]	97 RLU/μg/sec/mm2	9398	913540 RLU/μg/sec/mm2	high luminescence intensity		9400	about 10,000 fold		
Oc1ccc(Cc2nc3c(CC4CCCC4)nc(-c4ccc(O)cc4)cn3c2O)cc1 [CTZ op, coelenterazine cp, reference compound]	5354 RLU/μg/sec/mm2	8	40564 RLU/μg/sec/mm2						
CCCCCCCCCCCCOS(=O)(=O)[O-].[Na+] [SDS, sodium dodecyl sulfate]								substantially deactivated; also recorded: mostly quenched	somewhat maintained luminescence activity
coelenterazine ip [CTZ ip, reference compound]	2200 RLU/μg/sec/mm2	4	8379 RLU/μg/sec/mm2		535 nm				
